Laboratory results taken from US20240103005A1, “N-ACRYLOYLINDOLES AND METHODS OF USE” (The University of Hong Kong, priority 2022, published 2024).
“Also recorded” adds a separate entry of the source.

Tests used:
[1] = Reaction kinetics of cysteine-reactive compounds with N-acetyl-L-cysteine methyl ester (LC-MS); type: physicochemical
Protocol: Reaction Kinetics of Cysteine-Reactive Compounds with N-Acetyl-L-Cysteine Methyl Ester
Stock solution of cysteine-reactive compound in DMSO was diluted by PBS/MeOH solution mixture (4:1, v/v; 500 μL), reaching final concentration of 10 μM. Stock solution of N-acetyl-L-cysteine methyl ester in DMSO was then freshly prepared, and added to the compound solution at final concentration of 250 μM. The solution mixture was incubated at room temperature, and at predetermined time intervals, an aliquot of the reaction mixture (10 μL) was sent for LC-MS analysis on Waters Autopurification System using a SunFire C18 HPLC column (50×4.6 mm with 5 μm diameter particles, Waters). Separation was achieved by gradient elution from 5% to 100% MeCN in water (constant 0.1 vol % formic acid) over 4 min, isocratic elution with 100% MeCN (with 0.1 vol % formic acid) from 4 to 8 min, and returning to 5% MeCN in water (with 0.1 vol % formic acid) and equilibrated for 2 min. Selected ion chromatograms, with m/z corresponding to the molecular ion of the compound and/or the adduct, were extracted and the data was analyzed using MassLynx™ software by calculating the area under the curve. The peak area was then calibrated to concentration of the compound/adduct by a set of solution mixtures containing known concentrations of the compound/adduct.
The reactivity of NAIA with cysteine in aqueous buffer solution has been investigated by LC-MS experiments (FIGS. 1A-1J). […] Upon addition of N-acetylcysteine methyl ester (250 μM), NAIA-5 reacted quickly and completely with N-acetylcysteine methyl ester within […], as reflected by the diminishment of the peak of NAIA-5 at t=6.20 min with a concomitant growth of a new peak at t=5.60 min in the LC, which is attributable to the cysteine adduct of NAIA-5 based on the MS (FIGS. 1B-1G). […] This highlights the important contribution of aromaticity of indole scaffold to increase electrophilicity of acrylamide warhead for fast and complete cysteine reaction in aqueous buffer solution.
Next, we monitored the reaction between NAIA-amide (10 μM) and N-acetylcysteine methyl ester (250 μM) by LC-MS analysis (FIG. 17A). Complete conversion of NAIA-C5 amide was observed within 40 s as indicated by the disappearance of NAIA-C5 amide peak (t=5.09 min) and emergence of the adduct peat (t=4.80 min) in the LC trace (FIG. 17B). Likewise, the reaction of NAIA-C4 amide proceeded with fast kinetics and was completely consumed in 1 min (FIG. 17C). The calculated rate constant of NAIA-C5 amide and NAIA-C4 amide were 2-fold and 1.2-fold faster than NAIA (FIG. 17D). […] Owning to the excellent reaction rate of NAIA-C5 amide, it was taken forward for further comparative analysis in subsequent experiments.

[2] = system: HepG2 cells; experiment: Imaging a decrease in free thiol level in HepG2 cells under oxidative stress; type: cell-based; conditions: 10 min; for fluorescence from labeling of free thiols, solvent control cells: 50 μM, same imaging parameters; for change in cellular fluorescence intensity upon H2O2 pretreatment: H2O2 0.5 or 1 mM 15 min, probe 50 μM
Protocol: Imaging a Decrease in Free Thiol Level in HepG2 Cells Under Oxidative Stress by NAIA-5 or IAA
HepG2 cells were plated on a 8-well Nunc Lab-Tek chambered slide system and allowed to grow in complete medium at 37° C. with 5% CO2 to ca. 70% confluency. The cells were then pretreated with solvent vehicles, H2O2 (0.5 or 1 mM) or H2O2 (1 mM)+NAC (5 mM) in complete medium for 15 min at 37° C. The cells were washed with PBS and incubated with NAIA-5 or IAA (50 μM) in complete medium for 10 min at 37° C. After that, the cells were washed with PBS and fixed by 4% paraformaldehyde in PBS at room temperature for 15 min. The fixed cells were washed with PBS, permeabilized by PBS with 0.5 vol % Triton X-100 at room temperature for 30 min, washed again with PBS and incubated with a master mix solution containing CuSO4, THTPA, azide-fluor 545 and sodium ascorbate at final concentrations of 100, 500, 20 and 5000 μM respectively. After incubation in dark at room temperature for 1 h, the cells were washed with PBS and stained by Hoechst 33342 in PBS (final concentration=8.2 μM) at room temperature for 15 min. The cells were washed thrice with PBS and then imaged in PBS by confocal fluorescence microscopy.
Confocal fluorescence microscopy imaging was performed with a Zeiss laser scanning microscope 880 with a 20× water-immersion objective lens using ZEN 2.3 (Black Version) software (Carl Zeiss) with 3× magnification zoom-in. Hoechst 33342 was excited with a 405 nm diode laser, and emission was collected on a META detector between 371 and 507 nm. Fluor 545 was excited by a 561 nm diode laser and emission was collected on a META detector between 576 and 683 nm. Image analysis was performed by use of ImageJ. A region of interest (ROI) was created around individual cell, and cellular fluorescence intensity was measured. The reported average cellular fluorescence intensity was determined by averaging the measured intensity from 30 different cells from 3 different biological replicates/group. Statistical analyses were performed with a two-tailed Student's t-test (MS Excel).
These attractive features indicate the good potential of using NAIs/NAIAs to trap cellular thiols in live cells that should allow better identification of cysteine oxidative modifications. To explore this potential application, we first sought to capture and image free thiols by NAIA-5 in live HepG2 cells by confocal fluorescence microscopy (FIG. 4A). HepG2 cells were pretreated with solvent vehicles, H2O2 or H2O2+N-acetyl cysteine (NAC), where NAC can scavenge H2O2 and relieve the oxidative stress in the HepG2 cells. After the pretreatment, the cells were incubated with NAIA-5 or IAA (50 μM) for 10 min to ligand and snap-shot free cellular thiols. […]

[3] = Selectivity for reacting with Cys over other amino acids (LC-MS); type: physicochemical; conditions: compound 10 μM, amino acid 30 μM (3 equiv.), 30 min, PBS/MeOH 4:1
Protocol: Selectivity of NAI for Reacting with Cys Over Other Amino Acids
Stock solution of NAIA-4 and NAIA-5, respectively, in DMSO was diluted by PBS/MeOH solution mixture (4:1, v/v; 500 μL), reaching final concentration of 10 μM. Stock solution of amino acid in DMSO was then freshly prepared, and added to the compound solution at final concentration of 30 μM. The solution mixture was incubated at room temperature for 30 min. After that, an aliquot of the reaction mixture (10 μL) was sent for LC-MS analysis. Selected ion chromatograms, with m/z=325 corresponding to [NAIA-4+H]^+ or [NAIA-5+H]^+, were extracted and analyzed by integrating the area under curve.
As fast-reacting probes are often susceptible to hydrolysis, we sought to investigate the aqueous stability of NAIA-C5 amide. […] Taking the excellent reaction kinetics and a mere 14% degradation in 30 min into account, NAIA-C5 amide was considered to be a useful tool in cysteine profiling (FIG. 17C and FIG. 17F).

[4] = compound 10 μM, N-Ac-Cys-OMe 250 μM, PBS/MeOH 4:1

| SMILES | reaction kinetics with cysteine (k) ([1]; FIG. 7 legend summary) | cysteine reaction rate (in words) ([1]; compound 10 μM, N-Ac-Cys-OMe 250 μM) | compound left unreacted [1, 4] | fluorescence from labeling of free thiols, solvent control cells [2] | change in cellular fluorescence intensity upon H2O2 pretreatment [2] | selectivity toward cysteine over other amino acids [3] | time to complete reaction with N-acetylcysteine methyl ester [1, 4] |
| --- | --- | --- | --- | --- | --- | --- | --- |
| C#CCCCCNC(=O)CI [IAA, N-Hex-5-ynyl-2-iodoacetamide, reference compound] | ~10^0 M^−1 s^−1 | react much slower with cysteine than our NAIAs | more than 40% | almost no fluorescence can be detected in IAA-labeled cells | cannot see statistically significant changes in fluorescence intensity | undesired reactivity with serine and lysine | – |
| C#CCCCCNC(=O)COc1ccc2c(ccn2C(=O)C=C)c1 [NAIA-5] | – | – | – | strong fluorescence from NAIA-5 labeling | H2O2 dose-dependent decrease in cellular fluorescence intensity | excellent selectivity toward cysteine over other amino acids; also recorded: Significant decreases in NAIA-4 and NAIA-5 levels were only found in the solution mixture with N-acetyl-L-cysteine methyl ester | ≤ 300 s |
